Experimental data: publication PMC10611374, “Characterization of the Hemolytic Activity of Mastoparan Family Peptides from Wasp Venoms” (Toxins, 2023)
Several values for one entry are separate records, joined by “and”; a condition that tells them apart may be missing. Equal entries are not always repeated. Where two headings read alike, the source gives them in different places. Ends that are not written are not given here.

Tests used:
[1] = system: rat red blood cells (RRBCs); assay: Hemolytic assay on rat red blood cells; type: cell-based, SD rats; conditions: rat red blood cells 5% (v/v) in PBS, 37 °C 1 h, OD 540 nm, 1% Triton X-100 = 100%; for RRBC Hemolysis (hemolysis rate at 320 μg/mL): peptide 320 μg/mL (highest dose), PBS = 0%, mean of three independent experiments; for EC50: peptide 10-320 μg/mL twofold dilutions, four-parameter logistic fit of mean of three independent experiments, '-' = hemolytic activity too low to calculate the EC50, read-out: RRBC EC50 (hemolytic activity)
Procedure: (§1) Fresh human red blood cells were obtained from healthy donors and collected in a sterile blood collecting vessel covered with sodium citrate (1:9) as the anticoagulating agent. Rat red blood cells were collected from the abdominal aorta in sterile blood-collecting vessels coated with sodium citrate (1:4) after the SD rats were anaesthetized with isoflurane. Then, the cells were washed three times with phosphate-buffered saline via centrifugation (1000× g, 4 °C, 5 min) and prepared in a sterile 96-well polypropylene plate to achieve a final concentration of 5% (v/v). Twofold dilutions of the peptides were prepared in PBS to 100 μL and mixed with an equal volume of HRBCs/RRBCs suspension to final peptide concentrations ranging from 10 to 320 μg/mL. After coincubation at 37 °C for 1 h, the plate was centrifuged (2000× g, 4 °C, 20 min), and 100 μL of supernatant was taken for optical density measurements at 540 nm using a microtiter plate reader (SpectraMax 190). The HRBCs/RRBCs were assayed with PBS (blank) or 1% Triton X-100 (positive control) to represent 0% and 100% hemolysis, respectively. The percent hemolysis was calculated according to the following equation: Hemolysis Rate (%) = 100% × (Amastoparans − Ablank)/(ATriton X-100 − Ablank). Three independent experiments were performed, and the mean hemolysis rate at each dose was used to calculate the EC50 in Sigmaplot software.
(§2) Statistical analysis was performed with GraphPad Prism software (version 5.0, San Diego, CA, USA). A two-tailed Student’s t-test was used to calculate the statistical probability in this study. Differences in the data were considered to be statistically significant when the p value was equal to or less than 0.05. The curve of hemolysis induced by wasp mastoparans was generated in SigmaPlot 12.5 software, and the EC50 was calculated according to the equation (Four Parameter Logistic Curve): y = min + (max − min)/(1 + (x/EC50)^−Hillslope). The heat map of hemolytic activity of mastoparan peptide was analysed in R software which is based on the value of log2(EC50).

[2] = system: human red blood cells (HRBCs); assay: Hemolytic assay on human red blood cells; type: cell-based; conditions: human red blood cells 5% (v/v) in PBS, 37 °C 1 h, OD 540 nm, 1% Triton X-100 = 100%; for HRBC Hemolysis (hemolysis rate at 320 μg/mL): peptide 320 μg/mL (highest dose), PBS = 0%, mean of three independent experiments; for EC50: peptide 10-320 μg/mL twofold dilutions, four-parameter logistic fit of mean of three independent experiments, '-' = hemolytic activity too low to calculate the EC50, read-out: HRBC EC50 (hemolytic activity)
Procedure: as §1, §2

Row | Compound | RRBC Hemolysis (hemolysis rate at 320 μg/mL) [1] | EC50 [1] | HRBC Hemolysis (hemolysis rate at 320 μg/mL) [2] | EC50 [2] | EC50 ([2]; listed as Polybia-MPI)
1 | CC[C@H](C)[C@H](NC(=O)[C@H](CC(=O)O)NC(=O)[C@@H](N)Cc1ccccc1)C(=O)N[C@@H](CCSC)C(=O)NCC(=O)N[C@@H](CC(C)C)C(=O)N[C@H](C(=O)N[C@@H](CCCCN)C(=O)N[C@@H](CCCCN)C(=O)N[C@H](C(=O)N[C@@H](C)C(=O)NCC(=O)N[C@@H](C)C(=O)N[C@@H](CC(C)C)C(N)=O)C(C)C)[C@@H](C)CC [EMP-ER] | 46% | 231 ± 3.7 µM | 25% |  | 
2 | CC[C@H](C)[C@H](N)C(=O)N[C@@H](CC(N)=O)C(=O)N[C@@H](CC(C)C)C(=O)N[C@@H](CCCCN)C(=O)N[C@@H](C)C(=O)N[C@@H](CC(C)C)C(=O)N[C@@H](C)C(=O)N[C@@H](C)C(=O)N[C@@H](CC(C)C)C(=O)N[C@@H](C)C(=O)N[C@@H](CCCCN)C(=O)N[C@@H](CCCCN)C(=O)N[C@H](C(=O)N[C@@H](CC(C)C)C(N)=O)[C@@H](C)CC [Mastoparan (L)] | 41% | 242 ± 2.6 µM | 100% | 82.9 ± 3.8 µM | 
3 | FDLLGLVKKVASAL-NH2 [EpVP2a] | 41% | 239 ± 7.6 µM | 79% | 152 ± 6.3 µM | 
4 | FDLLGLVKSVVSAL-NH2 [EpVP2b] | 100% | 50.6 ± 2.6 µM | 100% | 34.1 ± 3.5 µM | 
5 | FDVMGIIKKIASAL-NH2 [EMP-EF] | 48% | 216.8 ± 1.6 µM | 100% | 125 ± 20.6 µM | 
6 | GRILSFIKGLAEHL-NH2 [EMP-OD] | 49% | 190 ± 32 µM | 2% |  | 
7 | IDWKKLLDAAKQIL-NH2 [Polybia-MP I] | 100% | 51.4 ± 2.2 µM | 56% | 177 ± 7 µM | ≤ 400 µM
8 | IDWLKLGKMVMDVL-NH2 [Polybia-MP III] | 100% | 74.8 ± 10.4 µM | 79% | 38.5 ± 5.9 µM | 
9 | IDWLKLRVISVIDL-NH2 [Polybia-MP IV] | 0% | > 400 µM | 0% | > 400 µM | 
10 | IKWKAILDAVKKVL-NH2 [Mastoparan-A] | 56% | 183 ± 3.4 µM | 7% |  | 
11 | INLFGFAALVKKFL-NH2 [Mastoparan-T4] | 100% | 17.6 ± 2.4 µM | 100% | 28.5 ± 2.3 µM | 
12 | INLKAIAALAKKLF-NH2 [Mastoparan AF] | 92% | 107 ± 15.7 µM | 47% | 227 ± 3.1 µM | 
13 | INLKAIAALVKKVL-NH2 [HR1] | 39% | 253 ± 13 µM | 56% | 198 ± 8.9 µM | 
14 | INLKALAALVKKVL-NH2 [Mastoparan-II] | 90% | 147 ± 3.4 µM | 78% | 134.6 ± 1.2 µM | 
15 | INLKALLAVAKKIL-NH2 [Mastoparan-C] | 100% | 64.4 ± 10.7 µM | 100% |  | 
16 | INLKVFAALVKKFL-NH2 [Mastoparan-T1] | 87% | 22.7 ± 7.1 µM | 100% | 30.8 ± 1.6 µM | 

Row | Compound | RRBC Hemolysis (hemolysis rate at 320 μg/mL) [1] | EC50 [1] | HRBC Hemolysis (hemolysis rate at 320 μg/mL) [2] | EC50 [2] | EC50 ([2]; listed as Polybia-MPI)
17 | INLKVFAALVKKLL-NH2 [Mastoparan-T2] | 100% | 21.1 ± 2.4 µM | 100% | 11.8 ± 3.1 µM | 
18 | INLLKIAKGIIKSL-NH2 [EMP-AF] | 100% | 122 ± 13.1 µM | 100% | 111 ± 9.8 µM | 
19 | INLRGFAALVKKFL-NH2 [Mastoparan-T3] | 100% | 51.6 ± 2.1 µM | 100% | 112 ± 8 µM | 
20 | INMKAVAAVAKKPL-NH2 [MP-VB2] | 0% |  | 0% |  | 
21 | INWAKLGKLALQAL-NH2 [Ropalidia-MP] | 94% | 122 ± 4.3 µM | 100% | 42.5 ± 1.7 µM | 
22 | INWHDIAIKNIDAL-NH2 [Polybia-MP V] | 0% | > 400 µM | 0% | > 400 µM | 
23 | INWKAIIEAAKQAL-NH2 [Protopolybia-MPII] | 24% | > 400 µM | 13% | > 400 µM | 
24 | INWKAILQRIKKML-NH2 [Agelaia-MPII] | 97% | 62.1 ± 3.8 µM | 100% | 44.8 ± 10.4 µM | 
25 | INWKALLDAAKKVL-NH2 [Protonectarina-MP] | 35% | 326 ± 26.4 µM | 100% |  | 
26 | INWKGIAAMAKKLL-NH2 [Mastoparan-X(V)] | 70% | 156 ± 2.4 µM | 29% | ≤ 400 µM and 349 µM | 
27 | INWKKIASIGKEVLKAL-NH2 [PMM2] | 100% | 80.9 ± 6.4 µM | 100% | 42.6 ± 2.5 µM | 
28 | INWKKIFQKVKNLV-NH2 [PDD-A] | 27% |  | 30% | 354 ± 44.8 µM | 
29 | INWKKIKSIIKAAMN-NH2 [Mastoparan-V1] | 16% |  | 9% |  | 
30 | INWKKIKSLIKAAMS-NH2 [Mastoparan-V2] | 52% | 182 ± 3.6 µM | 15% |  | 
31 | INWKKMAATALKMI-NH2 [Parapolybia-MP] | 22% |  | 32% | ≥ 400 µM and > 400 µM and 306 µM | 
